Read-outs that look alike come from different tables or passages of the source. Where a SMILES comes first, the peptide text is derived from it. [ ]: non-standard residue; d: D form. The star is where a group is joined. NOTA = O=C(O)CN1CCN(CC(=O)O)CCN(CC(=O)*)CC1; NH(4-amidinobenzyl) = N=C(N)c1ccc(CN*)cc1
Tests used:
[1] = Pharmacokinetic assay, intravenous 2 mg/kg, LC-MS/MS; type: in vivo; details: mouse, plasma, CD1 mice; for AUC: read-out: AUC calculated; for half-life: read-out: Half-life (in vivo plasma); for Vd: read-out: Volume of distribution
Experimental: To determine pharmacokinetic profiles of peptides, a single dose of 2 mg/kg was administered into systemic circulation from tail vein of CD1 mice (n = 4 animal/peptide). Blood was micro sampled on individual mouse at time 2.5, 5, 10, 20, 30 and 60 minutes. Plasma was collected by centrifugation and proteins were cleared from plasma using acetonitrile precipitation and supernatant was filtered using 0.2 μm PVDF centrifugal device (Canadian Life Science, Canada). Sample were analysed at PhenoSwitch Bioscience (Sherbrooke, Canada) by LC-MS/MS on a TripleTOF 5600 mass spectrometer (ABSciex, USA) equipped with DuoSpray source. Further information on mass spectrometry analyses and parameters used are presented in supplementary material.

LNCaP xenograft [2] = assay: LNCaP xenograft, systemic (iv) administration; type: in vivo, Nu/Nu male mice; details: daily 2 mg/kg iv; similar in control group
Experimental: For tumor implantation, trypsin-harvested LNCaP cell suspension was mixed with equal volume of matrigel (BD Biosciences, Bedford, MA) on ice and subcutaneously injected (200 μL) at 4 different sites (left/right hip and left/right shoulder) on Nu/Nu male mice (Charles River Laboratories, LaSalle, Canada) at density of 2 million cells/site. Tumors were periodically measured and the tumor volumes were calculated from the equation: Length•width^2•π/6. When tumors were fully formed and palpable, mice were divided into treatment groups. For intratumoral administration of the compound, 20 μL of peptides (2.5 μg/μL) or vehicle (5% Dimethyl sulfoxide in sterile saline) was administered directly into the tumor at interval of 48 hours. For intra-venous administration experiments, 100 μL of peptide solution (2 mg/kg) or vehicle (saline) was administered through tail vein at interval of 24 hours. The total tumor volume per animal was normalized using the following formula: (total tumor volume/total tumor volume at day 27 × 100). Blood sampling (50–75 μL) from saphenous vein was performed weekly and plasma was stored at −80°C for Prostate-specific antigen (PSA) serum levels determination using a PSA EIA assay (ClinPro International, USA). Mice were housed under pathogen-free conditions and manipulations were performed in a biosafety cabinet. […]

[3] = tested on: DU145 prostate cancer cell line; type: cell-based; details: 72 h
Experimental: (§1) Cell lines were obtained from ATCC and maintained in RPMI-1640 5% FBS (DU145) and 10% FBS (LNCaP). For MTT proliferation assays, peptides were added 24 hours after seeding in 96-well plates as previously described and incubated 72 hours prior to addition of MTT reagent (Sigma-Aldrich, Canada) at final concentration of 1 mg/mL [21, 22]. Formazan salt was solubilized with 100 μL Isopropanol: HCl (24:1N) and metabolic activity was normalized relatively to vehicle-treated cells (Sterile bidistilled water). IC50 were determined using Prism 5.0 (GraphPad Software, USA).

[4] = tested on: LNCaP prostate cancer cell line; type: cell-based; details: 72 h
Experimental: as §1

[5] = LNCaP cell-based peptide stability assay; type: in vitro ADME; details: human, LNCaP cells, HPLC, read-out: T½ LNCaP cells (converted)
Experimental: (§2) LNCaP cell-based stability assays were performed in Poly-(L)lysine coated 96-wells plates seeded at a density of 1,500 cells/wells. 100 μg of peptides were added 24 hours after plating without media change. Media was collected and mixed with 5 μL of trifluororacetic acid 5% to stop peptide degradation. Ex vivo plasmatic stability assays were performed as previously described. Briefly, compounds (0.5 μg/μL) were incubated with CD1 mouse plasma from mixed-sex animals collected with heparin sodium (Novi, USA). Reaction was stop by addition of 150 μL guanidine HCl and 300 μL of acetonitrile and peptides were extracted by centrifugation. For both in vitro and ex vivo stability assays, peptide stability was assessed from reverse phase HPLC and percentage of remaining peptide was calculated from area under curve and normalized to time 0.

[6] = Ex vivo plasmatic stability assay; type: in vitro ADME; details: both sexes, CD1; ex vivo mouse plasma; read-out: T½ plasma (converted)
Experimental: as §2

LNCaP xenograft [7] = assay: LNCaP xenograft, intratumoral administration; type: in vivo, Nu/Nu male mice; details: intra-tumoral, 50 μg/tumor per 48 h; vehicle 400 ± 100%
Experimental: For tumor implantation, trypsin-harvested LNCaP cell suspension was mixed with equal volume of matrigel (BD Biosciences, Bedford, MA) on ice and subcutaneously injected (200 μL) at 4 different sites (left/right hip and left/right shoulder) on Nu/Nu male mice (Charles River Laboratories, LaSalle, Canada) at density of 2 million cells/site. Tumors were periodically measured and the tumor volumes were calculated from the equation: Length•width^2•π/6. When tumors were fully formed and palpable, mice were divided into treatment groups. For intratumoral administration of the compound, 20 μL of peptides (2.5 μg/μL) or vehicle (5% Dimethyl sulfoxide in sterile saline) was administered directly into the tumor at interval of 48 hours. For intra-venous administration experiments, 100 μL of peptide solution (2 mg/kg) or vehicle (saline) was administered through tail vein at interval of 24 hours. […] Blood sampling (50–75 μL) from saphenous vein was performed weekly and plasma was stored at −80°C for Prostate-specific antigen (PSA) serum levels determination using a PSA EIA assay (ClinPro International, USA). Mice were housed under pathogen-free conditions and manipulations were performed in a biosafety cabinet. All experimental procedures were in accordance with the Canadian Council on Animal Care.

[8] = tested on: DU145 prostate cancer cell line; details: MTT assay; ref Kwiatkowska et al [22]; cited from earlier work
[9] = tested on: LNCaP prostate cancer cell line; details: MTT assay; ref Kwiatkowska et al [22]; cited from earlier work
[10] = molecular target: T1, human recombinant and soluble PACE4 (Homo sapiens, UniProt P29122); assay: Enzymatic assay, inhibition constant toward PACE4; type: biochemical
T1 construct: made in house; host or cells: S2 insect cells (Drosophila Schneider 2)
T1 sequence (P29122 150-969): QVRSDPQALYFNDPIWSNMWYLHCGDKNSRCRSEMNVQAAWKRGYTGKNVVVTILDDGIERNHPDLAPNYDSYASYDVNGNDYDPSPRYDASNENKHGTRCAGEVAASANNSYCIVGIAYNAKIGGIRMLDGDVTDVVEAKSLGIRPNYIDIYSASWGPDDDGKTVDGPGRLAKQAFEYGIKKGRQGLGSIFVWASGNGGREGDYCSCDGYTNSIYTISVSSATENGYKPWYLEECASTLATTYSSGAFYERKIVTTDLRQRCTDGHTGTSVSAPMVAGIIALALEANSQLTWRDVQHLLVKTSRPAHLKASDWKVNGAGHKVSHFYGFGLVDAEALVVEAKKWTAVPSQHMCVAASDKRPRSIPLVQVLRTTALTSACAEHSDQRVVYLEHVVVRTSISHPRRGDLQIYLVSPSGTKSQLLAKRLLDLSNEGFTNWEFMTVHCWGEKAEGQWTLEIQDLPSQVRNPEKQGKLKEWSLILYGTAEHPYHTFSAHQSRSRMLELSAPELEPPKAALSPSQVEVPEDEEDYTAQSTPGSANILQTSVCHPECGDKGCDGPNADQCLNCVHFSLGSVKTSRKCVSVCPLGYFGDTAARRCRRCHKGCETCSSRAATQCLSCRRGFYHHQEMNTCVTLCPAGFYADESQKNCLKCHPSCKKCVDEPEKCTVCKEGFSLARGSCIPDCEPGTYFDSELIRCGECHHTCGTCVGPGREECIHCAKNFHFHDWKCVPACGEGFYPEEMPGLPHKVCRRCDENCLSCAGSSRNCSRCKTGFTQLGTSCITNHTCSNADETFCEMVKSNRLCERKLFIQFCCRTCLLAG
Experimental: Inhibition constants (Ki) were determined using human recombinant and soluble PACE4 and furin produced in S2 insect cells and purified as previously described. The enzymatic assays were performed as described.

[11] = set-up: method as in Kwiatkowska et al [22]; details: ex vivo mouse plasma; ref Kwiatkowska et al [22]; cited from earlier work
[12] = molecular target: T1, human recombinant and soluble PACE4; details: ref Kwiatkowska et al [22]; cited from earlier work

clearance [1] [mL/min] | AUC [1] [ng·h/mL] | half-life [1] [min] | Vd [1] [L] | half-life [5] [h] | Compound | T½ plasma [11] [h] | further results
0.5 ± 0.1 | 2170 | 9 ± 3 | 0.006 ± 0.004 | > 72 | CC(=O)N[C@H](CC(C)C)C(=O)N[C@@H](CC(C)C)C(=O)N[C@@H](CC(C)C)C(=O)N[C@@H](CC(C)C)C(=O)N[C@@H](CCCNC(=N)N)C(=O)N[C@H](C(=O)N[C@@H](CCCCN)C(=O)NCc1ccc(C(=N)N)cc1)C(C)C [Ac-[DLeu]LLLRVK-Amba] (Ac-[dL]LLLRVK-{NH(4-amidinobenzyl)}) | – | body weight loss (LNCaP xenograft [2]): 10%; IC50 [3]: 25 ± 10 µM; IC50 [4]: 40 ± 10 µM; half-life at 0.5 μg/μL [6]: 18 ± 3 h
– | – | – | – | – | CC(=O)N[C@@H](CC(C)C)C(=O)N[C@@H](CC(C)C)C(=O)N[C@@H](CC(C)C)C(=O)N[C@@H](CC(C)C)C(=O)N[C@@H](CCCNC(=N)N)C(=O)N[C@H](C(=O)N[C@@H](CCCCN)C(=O)NCc1ccc(C(=N)N)cc1)C(C)C [Ac-LLLLRVK-Amba] (Ac-LLLLRVK-{NH(4-amidinobenzyl)}) | – | mean tumoral volume at day 59 compared to day 25 (LNCaP xenograft [7]): 100 ± 30%; IC50 [8]: 25 ± 10 µM; IC50 [9]: 40 ± 15 µM
– | – | – | – | – | CC(C)C[C@H](NC(=O)[C@H](CC(C)C)NC(=O)[C@H](CC(C)C)NC(=O)[C@@H](CC(C)C)NC(=O)CN1CCN(CC(=O)O)CCN(CC(=O)O)CC1)C(=O)N[C@@H](CCCNC(=N)N)C(=O)N[C@H](C(=O)N[C@@H](CCCCN)C(=O)NCc1ccc(C(=N)N)cc1)C(C)C [NOTA-[DLeu]LLLRVK-Amba] ({NOTA}-[dL]LLLRVK-{NH(4-amidinobenzyl)}) | – | Ki PACE4 [10]: 0.006 ± 0.002 µM
0.6 ± 0.1 | 1670 | 8 ± 5 | 0.008 ± 0.007 | 21 ± 2 | Ac-LLLLRVKR-NH2 [Ac-LLLLRVKR-NH2] | 5.1 ± 0.8 | –
– | – | – | – | > 72 | CC(=O)N[C@@H](CC(C)C)C(=O)N[C@@H](CC(C)C)C(=O)N[C@@H](CC(C)C)C(=O)N[C@@H](CC(C)C)C(=O)N[C@@H](CCCN=C(N)N)C(=O)N[C@H](C(=O)N[C@@H](CCCCN)C(=O)NCc1ccc(C(=N)N)cc1)C(C)C [Ac-LLLLRVK-Amba] (Ac-LLLLRVK-{NH(4-amidinobenzyl)}) | 12 ± 2 | –
– | – | – | – | 38 ± 8 | CC(=O)N[C@H](CC(C)C)C(=O)N[C@@H](CC(C)C)C(=O)N[C@@H](CC(C)C)C(=O)N[C@@H](CC(C)C)C(=O)N[C@@H](CCCNC(=N)N)C(=O)N[C@H](C(=O)N[C@@H](CCCCN)C(=O)N[C@@H](CCCNC(=N)N)C(N)=O)C(C)C [Ac-[DLeu]LLLRVKR-NH2] | 8 ± 1 | Ki PACE4 [12]: 0.023 ± 0.001 µM

— paper PMC4414146, “PACE4 inhibitors and their peptidomimetic analogs block prostate cancer tumor progression through quiescence induction, increased apoptosis and impaired neovascularisation” (Oncotarget, 2015)
